Measurements taken from US20240294508A1, “RIP1 MODULATORS INCLUDING AZETIDINE CYCLIC UREAS, PREPARATIONS, AND USES THEREOF” (SIRONAX LTD., priority 2021, published 2024).

Tested on: HT-29 cells
Experiment: HT29 cells 0FBS assay in vitro: TNF-α/SMAC mimetic/zVAD-FMK induced necroptosis, CellTiter-Glo cell viability (RIP1 inhibitory activity)
Assay type: cell-based
Details: Homo sapiens, FBS free medium, TNF-α (10 ng/ml) + SMAC mimetic (6 uM) + zVAD-FMK (10 μM), 20 hours, geometric mean EC50
Procedure, shortened: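 Luminescent ATP read-out (CellTiter-Glo) gave viability of HT-29 cells after 20 h at 37° C in serum-free medium containing compound and a necroptosis cocktail of 10 ng/ml TNF-α, 6 uM SMAC mimetic and 10 μM zVAD-FMK. EC50s are geometric means of 10-point curves run in duplicate.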

`Cc1c(C#N)nn(C)c1-c1cc(OC2CN(C(=O)N3N=CC[C@H]3c3cc(F)cc(C#N)c3)C2)c(F)cn1` [Compound 51, (S)-5-(4-((1-(5-(3-cyano-5-fluorophenyl)-4,5-dihydro-1H-pyrazole-1-carbonyl)azetidin-3-yl)oxy)-5-fluoropyridin-2-yl)-1,4-dimethyl-1H-pyrazole-3-carbonitrile] and `Cc1c(C(N)=O)nn(C)c1-c1cc(OC2CN(C(=O)N3N=CC[C@H]3c3cc(F)cc(C#N)c3)C2)c(F)cn1` [Compound 58, (S)-5-(4-((1-(5-(3-cyano-5-fluorophenyl)-4,5-dihydro-1H-pyrazole-1-carbonyl)azetidin-3-yl)oxy)-5-fluoropyridin-2-yl)-1,4-dimethyl-1H-pyrazole-3-carboxamide] fall in the same range of EC50: 0.1 to 100 nM for the first, 0.1 to 100 nM for the second.

`CCn1nc(C)c(-c2cc(OC3CN(C(=O)N4N=CC[C@H]4c4cc(F)cc(C#N)c4)C3)c(F)cn2)c1C` [Compound 52, (S)-3-(1-(3-((2-(1-ethyl-3,5-dimethyl-1H-pyrazol-4-yl)-5-fluoropyridin-4-yl)oxy)azetidine-1-carbonyl)-4,5-dihydro-1H-pyrazol-5-yl)-5-fluorobenzonitrile] and `Cc1nn(CC2CC2)c(C)c1-c1cc(OC2CN(C(=O)N3N=CC[C@H]3c3cc(F)cc(C#N)c3)C2)c(F)cn1` [Compound 57, (S)-3-(1-(3-((2-(1-(cyclopropylmethyl)-3,5-dimethyl-1H-pyrazol-4-yl)-5-fluoropyridin-4-yl)oxy)azetidine-1-carbonyl)-4,5-dihydro-1H-pyrazol-5-yl)-5-fluorobenzonitrile] fall in the same range of EC50: 0.1 to 100 nM for the first, 0.1 to 100 nM for the second.

`Cc1cnn(C)c1-c1ccc(F)c(OC2CN(C(=O)N3N=CC[C@H]3c3cc(F)cc(C#N)c3)C2)n1` [Compound 53, (S)-3-(1-(3-((6-(1,4-dimethyl-1H-pyrazol-5-yl)-3-fluoropyridin-2-yl)oxy)azetidine-1-carbonyl)-4,5-dihydro-1H-pyrazol-5-yl)-5-fluorobenzonitrile] and `Cc1cnn(C)c1-c1ccc(F)c(OC2CN(C(=O)N3N=CC[C@H]3c3cncc(C#N)c3)C2)n1` [Compound 55, (S)-5-(1-(3-((6-(1,4-dimethyl-1H-pyrazol-5-yl)-3-fluoropyridin-2-yl)oxy)azetidine-1-carbonyl)-4,5-dihydro-1H-pyrazol-5-yl)nicotinonitrile] fall in the same range of EC50: 0.1 to 100 nM for the first, 0.1 to 100 nM for the second.

`Cc1c(C#N)nn(C)c1-c1ccc(F)c(OC2CN(C(=O)N3N=CC[C@H]3c3cc(F)cc(C#N)c3)C2)n1` [Compound 56, (S)-5-(6-((1-(5-(3-cyano-5-fluorophenyl)-4,5-dihydro-1H-pyrazole-1-carbonyl)azetidin-3-yl)oxy)-5-fluoropyridin-2-yl)-1,4-dimethyl-1H-pyrazole-3-carbonitrile] and `Cc1c(C(N)=O)nn(C)c1-c1ccc(F)c(OC2CN(C(=O)N3N=CC[C@H]3c3cc(F)cc(C#N)c3)C2)n1` [Compound 59, (S)-5-(6-((1-(5-(3-cyano-5-fluorophenyl)-4,5-dihydro-1H-pyrazole-1-carbonyl)azetidin-3-yl)oxy)-5-fluoropyridin-2-yl)-1,4-dimethyl-1H-pyrazole-3-carboxamide] fall in the same range of EC50: 0.1 to 100 nM for the first, 0.1 to 100 nM for the second.

`Cc1cnn(C)c1-c1ccc(F)c(OC2CN(C(=O)N3N=CC[C@H]3c3cc(F)cc(C#N)c3)C2)c1` [Compound 60, (S)-3-(1-(3-(5-(1,4-dimethyl-1H-pyrazol-5-yl)-2-fluorophenoxy)azetidine-1-carbonyl)-4,5-dihydro-1H-pyrazol-5-yl)-5-fluorobenzonitrile] and `Cc1nn(-c2cc(OC3CN(C(=O)N4N=CC[C@H]4c4cc(F)cc(C#N)c4)C3)c(F)cn2)c(C)c1C(N)=O` [Compound 70, (S)-1-(4-((1-(5-(3-cyano-5-fluorophenyl)-4,5-dihydro-1H-pyrazole-1-carbonyl)azetidin-3-yl)oxy)-5-fluoropyridin-2-yl)-3,5-dimethyl-1H-pyrazole-4-carboxamide] fall in the same range of EC50: 0.1 to 100 nM for the first, 0.1 to 100 nM for the second.

`Cc1c(N)nn(C)c1-c1cc(OC2CN(C(=O)N3N=CC[C@H]3c3cncc(F)c3)C2)c(F)cn1` [Compound 61, (S)-(3-((2-(3-amino-1,4-dimethyl-1H-pyrazol-5-yl)-5-fluoropyridin-4-yl)oxy)azetidin-1-yl)(5-(5-fluoropyridin-3-yl)-4,5-dihydro-1H-pyrazol-1-yl)methanone] and `Cc1c(N)nn(C)c1-c1cc(OC2CN(C(=O)N3N=CC[C@H]3c3cncc(C#N)c3)C2)c(F)cn1` [Compound 62, (S)-5-(1-(3-((2-(3-amino-1,4-dimethyl-1H-pyrazol-5-yl)-5-fluoropyridin-4-yl)oxy)azetidine-1-carbonyl)-4,5-dihydro-1H-pyrazol-5-yl)nicotinonitrile] fall in the same range of EC50: 0.1 to 100 nM for the first, 0.1 to 100 nM for the second.

Compared with `Cc1nn(-c2cc(OC3CN(C(=O)N4N=CC[C@H]4c4cncc(F)c4)C3)c(F)cn2)c(C)c1C(N)=O` [Compound 63, (S)-1-(5-fluoro-4-((1-(5-(5-fluoropyridin-3-yl)-4,5-dihydro-1H-pyrazole-1-carbonyl)azetidin-3-yl)oxy)pyridin-2-yl)-3,5-dimethyl-1H-pyrazole-4-carboxamide], `Cc1nn(-c2cc(OC3CN(C(=O)N4N=CC[C@H]4c4cccc(F)c4)C3)c(F)cn2)c(C)c1C(N)=O` [Compound 73, (S)-1-(5-fluoro-4-((1-(5-(3-fluorophenyl)-4,5-dihydro-1H-pyrazole-1-carbonyl)azetidin-3-yl)oxy)pyridin-2-yl)-3,5-dimethyl-1H-pyrazole-4-carb oxamide] is lower in EC50: 100 to 1000 nM for the first, 0.1 to 100 nM for the second.

`Cc1ncsc1-c1cc(OC2CN(C(=O)N3N=CC[C@H]3c3cncc(F)c3)C2)c(F)cn1` [Compound 64, (S)-(3-((5-fluoro-2-(4-methylthiazol-5-yl)pyridin-4-yl)oxy)azetidin-1-yl)(5-(5-fluoropyridin-3-yl)-4,5-dihydro-1H-pyrazol-1-yl)methanone] and `Cc1c(C#N)nn(C)c1-c1cc(OC2CN(C(=O)N3N=CC[C@H]3c3cncc(F)c3)C2)c(F)cn1` [Compound 65, (S)-5-(5-fluoro-4-((1-(5-(5-fluoropyridin-3-yl)-4,5-dihydro-1H-pyrazole-1-carbonyl)azetidin-3-yl)oxy)pyridin-2-yl)-1,4-dimethyl-1H-pyrazole-3-carbonitrile] fall in the same range of EC50: 0.1 to 100 nM for the first, 0.1 to 100 nM for the second.

Compared with `Cc1c(N)nn(C)c1-c1ccc(F)c(OC2CN(C(=O)N3N=CC[C@H]3c3cncc(F)c3)C2)n1` [Compound 67, (S)-(3-((6-(3-amino-1,4-dimethyl-1H-pyrazol-5-yl)-3-fluoropyridin-2-yl)oxy)azetidin-1-yl)(5-(5-fluoropyridin-3-yl)-4,5-dihydro-1H-pyrazol-1-yl)methanone], `Cc1nc(C(N)=O)c(C)n1-c1cc(OC2CN(C(=O)N3N=CC[C@H]3c3cncc(F)c3)C2)c(F)cn1` [Compound 69, (S)-1-(5-fluoro-4-((1-(5-(5-fluoropyridin-3-yl)-4,5-dihydro-1H-pyrazole-1-carbonyl)azetidin-3-yl)oxy)pyridin-2-yl)-2,5-dimethyl-1H-imidazole-4-carboxamide] is higher in EC50: 0.1 to 100 nM for the first, 100 to 1000 nM for the second.

First: Cc1nc(C#N)c(C)n1-c1cc(OC2CN(C(=O)N3N=CC[C@H]3c3cncc(F)c3)C2)c(F)cn1 [Compound 68, (S)-1-(5-fluoro-4-((1-(5-(5-fluoropyridin-3-yl)-4,5-dihydro-1H-pyrazole-1-carbonyl)azetidin-3-yl)oxy)pyridin-2-yl)-2,5-dimethyl-1H-imidazole-4-carbonitrile]
Second: CNC(=O)c1c(C)nn(-c2cc(OC3CN(C(=O)N4N=CC[C@H]4c4cccc(F)c4)C3)c(F)cn2)c1C [Compound 79, (S)-1-(5-fluoro-4-((1-(5-(3-fluorophenyl)-4,5-dihydro-1H-pyrazole-1-carbonyl)azetidin-3-yl)oxy)pyridin-2-yl)-N,3,5-trimethyl-1H-pyrazole-4-carboxamide]
The EC50 of the first is higher: 100 to 1000 nM for the first, 0.1 to 100 nM for the second. The second is the more potent here.

`Cc1nn(-c2cc(OC3CN(C(=O)N4N=CC[C@H]4c4ccccc4)C3)c(F)cn2)c(C)c1C(N)=O` [Compound 71, (S)-1-(5-fluoro-4-((1-(5-phenyl-4,5-dihydro-1H-pyrazole-1-carbonyl)azetidin-3-yl)oxy)pyridin-2-yl)-3,5-dimethyl-1H-pyrazole-4-carboxamide] and `CNC(=O)c1c(C)nn(-c2cc(OC3CN(C(=O)N4N=CC[C@H]4c4ccccc4)C3)c(F)cn2)c1C` [Compound 78] fall in the same range of EC50: 0.1 to 100 nM for the first, 0.1 to 100 nM for the second.

`Cc1nn(-c2cc(OC3CN(C(=O)N4N=CC[C@H]4c4ccccc4)C3)c(F)cn2)c(C)c1C(=O)NCCO` [Compound 74, (S)-1-(5-fluoro-4-((1-(5-phenyl-4,5-dihydro-1H-pyrazole-1-carbonyl)azetidin-3-yl)oxy)pyridin-2-yl)-N-(2-hydroxyethyl)-3,5-dimethyl-1H-pyrazole-4-carboxamide] and `Cc1nn(-c2cc(OC3CN(C(=O)N4N=CC[C@H]4c4cccc(F)c4)C3)c(F)cn2)c(C)c1C(=O)NCCO` [Compound 75, (S)-1-(5-fluoro-4-((1-(5-(3-fluorophenyl)-4,5-dihydro-1H-pyrazole-1-carbonyl)azetidin-3-yl)oxy)pyridin-2-yl)-N-(2-hydroxyethyl)-3,5-dimethyl-1H-pyrazole-4-carboxamide] fall in the same range of EC50: 0.1 to 100 nM for the first, 0.1 to 100 nM for the second.

`Cc1nn(-c2cc(OC3CN(C(=O)N4N=CC[C@H]4c4ccccc4)C3)c(F)cn2)c(C)c1C(=O)NC1COC1` [Compound 76, (S)-1-(5-fluoro-4-((1-(5-phenyl-4,5-dihydro-1H-pyrazole-1-carbonyl)azetidin-3-yl)oxy)pyridin-2-yl)-3,5-dimethyl-N-(oxetan-3-yl)-1H-pyrazole-4-carboxamide] and `Cc1nn(-c2cc(OC3CN(C(=O)N4N=CC[C@H]4c4cccc(F)c4)C3)c(F)cn2)c(C)c1C(=O)NC1COC1` [Compound 77, (S)-1-(5-fluoro-4-((1-(5-(3-fluorophenyl)-4,5-dihydro-1H-pyrazole-1-carbonyl)azetidin-3-yl)oxy)pyridin-2-yl)-3,5-dimethyl-N-(oxetan-3-yl)-1H-pyrazole-4-carboxamide] fall in the same range of EC50: 0.1 to 100 nM for the first, 0.1 to 100 nM for the second.
